Reference: BindingDB's records for doi:10.1016/j.bmcl.2018.10.050 (Vanderbilt University, 2019)
pIC50: −log10 of the molar value.

Assay: Inhibition of CYP1A2 (unknown origin)

Row | pIC50 | Compound
1 | > 3.30 | FC(F)(F)c1nccc2cc(Nc3n[nH]c4nccnc34)ccc12 [N-(1H-pyrazolo[3,4-b]pyrazin-3-yl)-1-(trifluoromethyl) isoquinolin-6-amine]
2 | > 3.30 | FC(F)(F)c1nccc2cc(Nc3n[nH]c4cccnc34)ccc12 [N-(1H-pyrazolo[4,3-b]pyridin-3-yl)-1-(trifluoromethyl) isoquinolin-6-amine]
